We go through four compounds from BindingDB's records for doi:10.1074/jbc.M113.507756 (University of Otago Christchurch, 2013).

Usually IC50 stands for the concentration that inhibits the measured activity by half. Read a low IC50 as higher potency. By Kd is commonly meant the concentration at which binding is half-saturated. Higher therefore signals weaker binding.

Structures are written as SMILES.

The target in one test is Lactoperoxidase (Bos taurus, UniProt P80025). Nature of the test: LPO/TPO Selectivity Assay. The protocol: (§1) The halogenation activities of LPO (EC 1.11.1.7) and TPO (EC 1.11.1.8) were determined using a modified method of that described previously [Ferrari et al., J. Inorg. Biochem., 68:61-69].
The target of a further test is T1, Thyroid peroxidase (Homo sapiens, UniProt P07202).
T1 sequence (P07202 whole entry): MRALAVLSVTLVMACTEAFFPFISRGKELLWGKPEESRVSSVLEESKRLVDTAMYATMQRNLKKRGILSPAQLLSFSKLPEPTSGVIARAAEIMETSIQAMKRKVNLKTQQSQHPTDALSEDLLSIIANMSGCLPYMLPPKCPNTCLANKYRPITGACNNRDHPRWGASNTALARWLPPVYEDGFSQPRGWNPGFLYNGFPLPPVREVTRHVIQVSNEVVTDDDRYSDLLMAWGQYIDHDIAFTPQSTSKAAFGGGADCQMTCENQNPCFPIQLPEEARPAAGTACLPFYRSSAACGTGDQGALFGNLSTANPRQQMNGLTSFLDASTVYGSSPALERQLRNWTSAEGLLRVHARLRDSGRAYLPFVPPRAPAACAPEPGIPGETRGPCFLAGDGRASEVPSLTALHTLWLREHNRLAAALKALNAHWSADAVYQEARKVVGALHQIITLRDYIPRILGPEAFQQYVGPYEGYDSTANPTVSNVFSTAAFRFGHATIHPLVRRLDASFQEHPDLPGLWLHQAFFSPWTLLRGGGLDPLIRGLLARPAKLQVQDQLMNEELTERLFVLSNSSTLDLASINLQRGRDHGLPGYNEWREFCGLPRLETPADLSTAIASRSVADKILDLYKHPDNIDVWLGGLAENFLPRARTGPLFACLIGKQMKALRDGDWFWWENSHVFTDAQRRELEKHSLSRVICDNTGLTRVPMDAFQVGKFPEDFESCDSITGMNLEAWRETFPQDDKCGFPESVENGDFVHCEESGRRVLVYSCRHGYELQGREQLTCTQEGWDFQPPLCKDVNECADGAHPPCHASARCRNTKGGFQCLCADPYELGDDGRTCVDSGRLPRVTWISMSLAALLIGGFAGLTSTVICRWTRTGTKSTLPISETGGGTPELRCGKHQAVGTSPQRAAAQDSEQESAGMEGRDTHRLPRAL
The experiment in a line: LPO/TPO Selectivity Assay. How it is done: as §1

Test [1] has as its target T2, Myeloperoxidase (Homo sapiens, UniProt P05164).
T2 sequence (P05164 whole entry): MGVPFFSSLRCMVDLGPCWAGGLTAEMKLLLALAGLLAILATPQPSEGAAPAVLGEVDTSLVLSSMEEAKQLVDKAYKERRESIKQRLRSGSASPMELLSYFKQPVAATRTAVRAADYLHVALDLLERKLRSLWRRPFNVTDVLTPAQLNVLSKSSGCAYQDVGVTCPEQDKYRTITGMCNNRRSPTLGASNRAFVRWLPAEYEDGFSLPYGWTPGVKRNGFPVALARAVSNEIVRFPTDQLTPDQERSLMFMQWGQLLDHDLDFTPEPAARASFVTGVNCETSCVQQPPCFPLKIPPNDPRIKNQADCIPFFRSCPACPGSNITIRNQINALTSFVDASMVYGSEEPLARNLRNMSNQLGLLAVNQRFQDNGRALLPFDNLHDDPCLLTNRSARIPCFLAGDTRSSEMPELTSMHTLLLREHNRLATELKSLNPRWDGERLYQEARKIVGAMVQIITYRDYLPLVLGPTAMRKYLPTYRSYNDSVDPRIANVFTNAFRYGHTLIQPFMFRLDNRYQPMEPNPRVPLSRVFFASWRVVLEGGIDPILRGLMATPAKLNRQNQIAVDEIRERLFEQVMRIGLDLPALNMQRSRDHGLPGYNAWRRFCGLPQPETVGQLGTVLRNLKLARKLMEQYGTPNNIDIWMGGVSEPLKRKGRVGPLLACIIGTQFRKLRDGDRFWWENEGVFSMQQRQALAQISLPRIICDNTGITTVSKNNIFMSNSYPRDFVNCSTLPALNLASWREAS
Nature of the test: Myeloperoxidase Assay. Particulars: pH 6.5. The protocol:
Assays were performed at 22 °C with 2 nM MPO and 10 μM hydrogen peroxide (H2O2) in 20 mM NaH2PO4 buffer, pH 6.5 containing 140 mM NaCl, 10 mM taurine, and 1 mM L-tyrosine. Inhibitor compounds were preincubated with MPO for 15 min prior to the addition of H2O2, and the accumulation of taurine chloramine was determined after 1 min.

In test [2] the target is T2, Myeloperoxidase. Nature of the test: Surface Plasmon Resonance (SPR). The settings on record: pH 5. How it is done:
Binding kinetics were determined by surface plasmon resonance (SPR) using a Biacore S51 (Biacore, Uppsala, Sweden). MPO (50 μg/ml dissolved in 10 mM sodium acetate, pH 5.0) was immobilized onto the surface of CM5 sensor chips (Biacore) using surface amine coupling. One of the spots on the sensor surface was left without MPO to control for nonspecific binding. The signal observed in response to analyte binding was as expected linearly related to the amount of immobilized ligand, and 10,000 response units was routinely used to characterize compoundbinding (data not shown). Compounds were dissolved in binding buffer (10 mM HEPES, pH 7.4, 150 mM NaCl, 3 mM Na2EDTA, 0.005% (w/v) surfactant P20, 1% (v/v) DMSO final), and association was assessed during 60-210-s injections. After this time, analyte injection was terminated, and the chip surface was perfused with binding buffer at 30 μl/min for 4-12 min to monitor compound dissociation.

In the case of `O=C(NO)c1c[nH]c(NCc2cc(C(F)(F)F)cc(C(F)(F)F)c2)nc1=O` [2-(3,5-bistrifluoromethylbenzylamino)-6-oxo-1H-pyrimidine-5-carbohydroxamic acid (HX1)], the results for the IC50 against Lactoperoxidase and on Thyroid peroxidase were 6300 nM and 1590 nM, respectively.
For the compound `O=C(NO)c1c[nH]c(NCc2ccccc2)nc1=O` [2-(benzylamino)-6-oxo-3H-pyrimidine-5-carbohydroxamic acid (HX3)], the IC50 was 790 nM against Myeloperoxidase [1], 2000 nM at Lactoperoxidase and 1590 nM on Thyroid peroxidase. This compound gave a Kd on Myeloperoxidase [2] of 2000 nM.
In the case of `O=C(NO)c1ccccc1O` [Salicylic hydroxamic acid], the IC50 against Myeloperoxidase [1] was 25000 nM; against Thyroid peroxidase, 2000 nM.
Consider `O=C(NO)c1ccc(Cc2ccccc2)cc1O` [4-benzyl-2-hydroxybenzenecarbohydroxamic acid (HX2)], for which the values for the IC50 against Myeloperoxidase [1], against Lactoperoxidase and at Thyroid peroxidase were 25.1 nM, 40 nM and 63 nM, respectively. The compound further showed a Kd at Myeloperoxidase [2] of 63 nM.
